Patent publication US12492210B2, “Tricyclic compounds and their use” (HUTCHISON MEDIPHARMA LIMITED, priority 2019, dated 2025)

Assays:
MAPK1(ERK2) enzyme = molecular target: T1, MAPK1(ERK2) enzyme (Homo sapiens, UniProt P28482); test: Z-Lyte Kinase Assay of ERK2; format: biochemical; conditions: read-out: Example 18 IC50
T1 construct: purchased Invitrogen PV3313
How it was run: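 FRET-based Z-LYTE assay using ERK2 kinase with Ser/Thr3 peptide; compound tested at 0.00046–1 μM final in 2% DMSO. Kinase reaction ran 1 h at 25-30° C, followed by 1 h development. The coumarin/fluorescein emission ratio (445/520 nm) gave % phosphorylation, and IC50 was fitted from inhibition relative to uninhibited control.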

[1] = tested on: p-RSK (Thr359) in colo205 cells; test: p-RSK (Thr359) Acumen Assay in Colo205; format: cell-based; conditions: Homo sapiens, COLO 205, 1 hour compound incubation, read-out: Example 19 IC50
How it was run: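 Colo205 cells (4000/well, seeded overnight in 10% FBS) were exposed 1 hour at 37° C to compound added from a 3–0.001 μM dilution series in 5% DMSO. Cells were then fixed, permeabilised and immunostained for p-RSK Thr359, with PI counterstain. Acumen cytometry gave the percentage of positive cells, normalised to untreated wells and 3 uM GDC0994 wells, for the IC50 fit.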

T1 sequence (P28482 whole entry): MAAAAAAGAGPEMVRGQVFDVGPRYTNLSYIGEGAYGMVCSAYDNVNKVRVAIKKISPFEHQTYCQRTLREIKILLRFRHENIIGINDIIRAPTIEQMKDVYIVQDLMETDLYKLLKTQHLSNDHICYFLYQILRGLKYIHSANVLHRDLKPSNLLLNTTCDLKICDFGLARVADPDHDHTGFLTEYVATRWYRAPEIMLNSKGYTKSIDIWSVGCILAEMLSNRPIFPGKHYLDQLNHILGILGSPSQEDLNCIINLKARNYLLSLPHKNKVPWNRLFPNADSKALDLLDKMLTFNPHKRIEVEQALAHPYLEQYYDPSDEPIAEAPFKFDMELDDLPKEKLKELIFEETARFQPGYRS

Row | Compound | IC50 (MAPK1(ERK2) enzyme) | IC50 [1]
1 | Cc1cnc(NC2CCOCC2)nc1-c1cc2n(c1)CCCn1c-2nnc1C1(C(F)(F)F)CCC1 [Compound 277] | ≤ 0.005 µM | ≤ 0.1 µM
2 | Cc1cnc(NC2CC(F)(F)C2)nc1-c1cc2n(c1)CCCn1c-2nnc1C1(C(F)(F)F)CCC1 [Compound 278] | ≤ 0.005 µM | > 0.1 µM
3 | Cc1cnc(NC2CCc3ncnn3C2)nc1-c1cc2n(c1)C[C@H](C)n1c-2nnc1C(F)(F)c1ccccc1F (stereo partly drawn) [Compound 280] | 0.005 to 0.01 µM | > 0.1 µM
4 | Cc1cc(Nc2ncc(C)c(-c3cc4n(c3)CCCn3c-4nnc3C3(C(F)(F)F)CCC3)n2)ccn1 [Compound 281, 5-methyl-N-(2-methylpyridin-4-yl)-4-(3-(1-(trifluoromethyl)cyclobutyl)-6,7-dihydro-5H-pyrrolo[1,2-a][1,2,4]triazolo[3,4-c][1,4]diazepin-10-yl)pyrimidin-2-amine] | ≤ 0.005 µM | ≤ 0.1 µM
5 | Cn1nccc1Nc1nccc(-c2cc3c4nnc(Cc5cccc(F)c5)n4ccn3c2)n1 [Compound 282] | ≤ 0.005 µM | > 0.1 µM
6 | Cc1cnc(Nc2ccnn2C)nc1-c1cc2c3nnc(Cc4cccc(F)c4)n3ccn2c1 [Compound 283] | ≤ 0.005 µM | ≤ 0.1 µM
7 | Cc1cc(Nc2ncc(C)c(-c3cc4n(c3)CCCn3c-4nnc3C3(C(F)(F)F)CCC3)n2)on1 [Compound 284] | ≤ 0.005 µM | > 0.1 µM
8 | Cn1nccc1Nc1ncc(F)c(-c2cc3n(c2)CCCn2c-3nnc2C2(C(F)(F)F)CCC2)n1 [Compound 285] | ≤ 0.005 µM | > 0.1 µM
9 | Cc1cnccc1Nc1ncc(C)c(-c2cc3n(c2)CCCn2c-3nnc2C2(C(F)(F)F)CCC2)n1 [Compound 286] | 0.005 to 0.01 µM | ≤ 0.1 µM
10 | Cc1cnc(Nc2nncs2)nc1-c1cc2n(c1)C[C@H](C)n1c-2nnc1C(F)(F)c1ccccc1F [Compound 287] | 0.005 to 0.01 µM | ≤ 0.1 µM
11 | Cc1cc(Nc2ncc(C)c(-c3cc4n(c3)C[C@H](C)n3c-4nnc3C(F)(F)c3ccccc3F)n2)n(C)n1 [Compound 288] | > 0.01 µM | ≤ 0.1 µM
12 | CCn1nccc1Nc1ncc(C)c(-c2cc3n(c2)C[C@H](C)n2c-3nnc2C(F)(F)c2ccccc2F)n1 [Compound 289] | > 0.01 µM | ≤ 0.1 µM
13 | Cc1cnc(Nc2c(F)cnn2C)nc1-c1cc2n(c1)C[C@H](C)n1c-2nnc1C(F)(F)c1ccccc1F [Compound 290] | 0.005 to 0.01 µM | > 0.1 µM
14 | CCCn1nccc1Nc1ncc(C)c(-c2cc3n(c2)C[C@H](C)n2c-3nnc2C(F)(F)c2ccccc2F)n1 [Compound 291] | > 0.01 µM | ≤ 0.1 µM
15 | Cc1cnc(Nc2ccnn2C(C)C)nc1-c1cc2n(c1)C[C@H](C)n1c-2nnc1C(F)(F)c1ccccc1F [Compound 292] | > 0.01 µM | > 0.1 µM
16 | Cc1cnc(Nc2ccnn2CCO)nc1-c1cc2n(c1)C[C@H](C)n1c-2nnc1C(F)(F)c1ccccc1F [Compound 293] | 0.005 to 0.01 µM | ≤ 0.1 µM
17 | COc1cc(Nc2ncc(C)c(-c3cc4n(c3)C[C@H](C)n3c-4nnc3C(F)(F)c3ccccc3F)n2)c(C)cn1 [Compound 294] | > 0.01 µM | > 0.1 µM
18 | Cc1cnc(Nc2ccnn2C2COC2)nc1-c1cc2n(c1)C[C@H](C)n1c-2nnc1C(F)(F)c1ccccc1F [Compound 295] | 0.005 to 0.01 µM | ≤ 0.1 µM
19 | COCCn1nccc1Nc1ncc(C)c(-c2cc3n(c2)C[C@H](C)n2c-3nnc2C(F)(F)c2ccccc2F)n1 [Compound 296] | 0.005 to 0.01 µM | ≤ 0.1 µM
20 | Cc1cnc(Nc2ccnn2CCCO)nc1-c1cc2n(c1)C[C@H](C)n1c-2nnc1C(F)(F)c1ccccc1F [Compound 297] | > 0.01 µM | ≤ 0.1 µM
21 | Cc1cnc(Nc2ccnn2CC(F)F)nc1-c1cc2n(c1)C[C@H](C)n1c-2nnc1C(F)(F)c1ccccc1F [Compound 298] | > 0.01 µM | ≤ 0.1 µM
22 | Cn1nccc1Nc1cc(-c2cc3n(c2)CC(CO)Cn2c-3nnc2C2(C(F)(F)F)CCC2)c(Cl)cn1 (stereo not drawn) [Compound 299, (10-(5-chloro-2-((1-methyl-1H-pyrazol-5-yl)amino)pyridin-4-yl)-3-(1-(trifluoromethyl)cyclobutyl)-6,7-dihydro-5H-pyrrolo[1,2-a][1,2,4]triazolo[3,4-c][1,4]diazepin-6-yl)methanol] | ≤ 0.005 µM | ≤ 0.1 µM
23 | COCC1Cn2cc(-c3cc(Nc4ccnn4C)ncc3Cl)cc2-c2nnc(C3(C(F)(F)F)CCC3)n2C1 (stereo not drawn) [Compound 300, 5-chloro-4-(6-(methoxymethyl)-3-(1-(trifluoromethyl)cyclobutyl)-6,7-dihydro-5H-pyrrolo[1,2-a][1,2,4]triazolo[3,4-c][1,4]diazepin-10-yl)-N-(1-methyl-1H-pyrazol-5-yl)pyridin-2-amine] | 0.005 to 0.01 µM | ≤ 0.1 µM
24 | COC[C@H]1Cn2cc(-c3cc(Nc4ccnn4C)ncc3Cl)cc2-c2nnc(C(F)(F)C(F)F)n21 [Compound 301] | ≤ 0.005 µM | > 0.1 µM
25 | CO[C@@H]1Cn2cc(-c3cc(Nc4ccnn4C)ncc3Cl)cc2-c2nnc(C3(C(F)(F)F)CCC3)n2C1 [Compound 302] | ≤ 0.005 µM | ≤ 0.1 µM
26 | COC[C@H]1Cn2cc(-c3cc(Nc4ccnn4C)ncc3C)cc2-c2nnc(C(F)(F)c3ccccc3F)n21 [Compound 303] | 0.005 to 0.01 µM | > 0.1 µM
27 | Cn1nccc1Nc1cc(-c2cc3n(c2)CC2(COC2)Cn2c-3nnc2C(F)(F)C(F)F)c(Cl)cn1 [Compound 304, 5-chloro-N-(1-methyl-1H-pyrazol-5-yl)-4-(3′-(1,1,2,2-tetrafluoroethyl)-5′H,7′H-spiro[oxetane-3,6′-pyrrolo[1,2-a][1,2,4]triazolo[3,4-c][1,4]diazepin]-10′-yl)pyridin-2-amine] | ≤ 0.005 µM | ≤ 0.1 µM
28 | Cn1nccc1Nc1cc(-c2cc3n(c2)CC2(COC2)n2c(CCC(F)(F)F)nnc2-3)c(Cl)cn1 [Compound 305] | ≤ 0.005 µM | > 0.1 µM
29 | Cc1cnc(Nc2ccnn2C)cc1-c1cc2n(c1)CC1(COC1)Cn1c-2nnc1C1(C(F)(F)F)CCC1 [Compound 306] | ≤ 0.005 µM | ≤ 0.1 µM
30 | Cn1nccc1Nc1cc(-c2cc3n(c2)CC2(COC2)Cn2c-3nnc2C2(C(F)(F)F)CCC2)c(Cl)cn1 [Compound 307] | ≤ 0.005 µM | ≤ 0.1 µM
